The results in this text go back to patent US6239122A, “Method of treatment of nausea, vomiting, and other disorders using estrogens” (priority 2000, dated 2001).

Experiment [1] concerns the target T1, 5-HT3 receptor (Mus musculus, UniProt P23979).
T1 construct: an immortal cell line that expresses 5-HT3 receptors at a high density; endogenous in cells; host or cells: NCB-20 cells (mouse neuroblastoma × Chinese hamster brain hybrid)
Description: Whole-cell patch clamp, co-application of estrogen with 5-HT (0.5 μM); open conformation, high affinity site. It counts as cell-based, mouse neuroblastoma×Chinese hamster brain cell line (NCB-20).
Description: I recorded membrane currents carried by 5-HT3 receptors under voltage-clamp from single cells using the whole-cell configuration of the patch clamp technique (Hamill, O. P., Marty, A., Neher, E., Sakmann, B. & Sakmann, F. J., 1981, Pfluegers Arch. 391:85-100). Recordings were performed at a holding potential of -60 mV. Ligands were applied to the cells using a gravity-feed rapid perfusion system.
When the agonist is bound to the receptor and the receptor is conducting current, the receptor is in an open conformation. […] Concentration-effect data from 21 cells were fitted with the Hill (logistic) equation.

Experiment [2] deals with T1, 5-HT3 receptor. Description: Whole-cell patch clamp, estrogen applied before 5-HT (10 μM); closed conformation, low affinity site. It counts as cell-based, mouse neuroblastoma×Chinese hamster brain cell line (NCB-20). On the technique in general: Patch clamp records ionic current or voltage across a cell membrane.
Description: I used NCB-20 cells (mouse neuroblastoma×Chinese hamster brain cell line), an immortal cell line that expresses 5-HT3 receptors at a high density. Cells were grown in Dulbecco's modified Eagles medium containing 10% fetal bovine serum, 100 U/ml penicillin, 100 μg/ml streptomycin and 2 mM glutamine. Cells were incubated in 35 mm plates at 37 degrees C in a humidified 7% carbon dioxide atmosphere. […] I recorded membrane currents carried by 5-HT3 receptors under voltage-clamp from single cells using the whole-cell configuration of the patch clamp technique (Hamill, O. P., Marty, A., Neher, E., Sakmann, B. & Sakmann, F. J., 1981, Pfluegers Arch. 391:85-100). Recordings were performed at a holding potential of -60 mV. Ligands were applied to the cells using a gravity-feed rapid perfusion system.
This is also called the closed conformation of the receptor.

T1 sequence (P23979 24-489): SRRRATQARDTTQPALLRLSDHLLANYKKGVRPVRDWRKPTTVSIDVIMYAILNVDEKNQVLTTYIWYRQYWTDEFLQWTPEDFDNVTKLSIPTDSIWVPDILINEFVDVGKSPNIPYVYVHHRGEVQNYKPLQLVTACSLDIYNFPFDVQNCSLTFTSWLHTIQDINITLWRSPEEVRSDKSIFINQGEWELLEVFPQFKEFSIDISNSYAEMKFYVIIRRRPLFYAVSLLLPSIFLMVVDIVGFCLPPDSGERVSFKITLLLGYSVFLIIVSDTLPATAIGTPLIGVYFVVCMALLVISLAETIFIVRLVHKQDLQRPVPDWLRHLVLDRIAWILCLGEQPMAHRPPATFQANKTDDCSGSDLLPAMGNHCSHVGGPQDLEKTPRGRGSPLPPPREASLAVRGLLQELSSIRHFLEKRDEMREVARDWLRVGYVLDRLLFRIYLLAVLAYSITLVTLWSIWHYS

For `C[C@]12CC[C@@H]3c4ccc(O)cc4CC[C@H]3[C@@H]1C[C@@H](O)[C@@H]2O` [estriol], in experiment [1], the IC50 (as a rule, the concentration that gives 50% inhibition) is 22000 ± 8000 nM.
Regarding `C[C@]12CC[C@@H]3c4ccc(O)cc4CC[C@H]3[C@@H]1CCC2=O` [estrone, 3-hydroxyestra-1,3,5(10)-trien-17-one], the IC50 was found to be 1.5 nM in experiment [1] and 300 ± 20 nM in experiment [2].
